Measurements reported in patent US8088806B2 (Achillion Pharmaceuticals, Inc., priority 2005, dated 2012).

Tested on: HCV replicon
Assay: Replicon based assay of HCV replication inhibition (NPT ELISA)
Type: cell-based, Hepatitis C virus
Settings: Hepatitis C virus, Huh-7, 72 h, Table I; Huh-7 HCV replicon-containing cells, three days; read-out: Activity
In short: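 NPT (neomycin phosphotransferase) content, proportional to replicon replication, quantified by capture ELISA on day four. Before that, replicon-bearing Huh-7 cells in G418-free screening medium were exposed three days at 37° C to compound, typically six doses from 10 to 0.03 micromolar, with equal DMSO across wells.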

`c1ccc(Oc2cccc(Nc3nc(-c4cccnc4)cs3)c2)cc1` [compound 88, N-(3-phenoxyphenyl)-4-(pyridin-3-yl)thiazol-2-amine] was tested. Which EC50 did it give?
The EC50 was < 1 µM.

For `Cc1nccc(-c2cccc(Nc3nc(-c4cccnc4)cs3)c2)n1` [compound 105, N-(3-(2-methylpyrimidin-4-yl)phenyl)-4-(pyridin-3-yl)thiazol-2-amine], which EC50 is on record?
Its EC50 is > 10 µM.

Which EC50 does the source give for `CCCCCOc1ccc(N(C)c2nc(-c3cccnc3)cs2)cc1C(F)(F)F` [compound 157, N-(3-(trifluoromethyl)-4-(pentyloxy)phenyl)-N-methyl-4-(pyridin-3-yl)thiazol-2-amine] here?
The EC50 was < 1 µM.

Which EC50 does the source give for `Clc1ccc(-c2csc(Nc3cccc(Cc4ccccc4)c3)n2)cc1Cl` [compound 36, N-(3-benzylphenyl)-4-(3,4-dichlorophenyl)thiazol-2-amine] here?
Its EC50 is < 1 µM.

For `c1ccc(N2CCC(Nc3nc(-c4cccnc4)cs3)=N2)cc1` [compound 143, 4,5-dihydro-1-phenyl-N-(4-(pyridin-3-yl)thiazol-2-yl)-1H-pyrazol-3-amine], which EC50 is on record?
Its EC50 is > 10 µM.

For `CCCCCOc1ccc(N(C)c2nc(C(=O)Nc3ccc(Cl)cc3)cs2)cc1C(F)(F)F` [compound 159, 2-(N-(3-(trifluoromethyl)-4-(pentyloxy)phenyl)-N-methylamino)-N-(4-chlorophenyl)thiazole-4-carboxamide], which EC50 is on record?
Its EC50 is > 10 µM.

Same assay, conditions: Hepatitis C virus, Huh-7, 72 h, Table III; Huh-7 HCV replicon-containing cells, three days; read-out: Activity

Which EC50 does the source give for `CCCCCOc1ccc(Nc2nc(Cc3ccc(OC)cc3)cs2)cc1C(F)(F)F` [compound 639, 4-(4-methoxybenzyl)-N-(3-(trifluoromethyl)-4-(pentyloxy)phenyl)thiazol-2-amine] here?
Its EC50 is 1 to 10 µM.

Which EC50 does the source give for `CCCCCOc1ccc(Nc2nc(-c3cncnc3)cs2)cc1F` [compound 618, N-(3-fluoro-4-(pentyloxy)phenyl)-4-(pyrimidin-5-yl)thiazol-2-amine] here?
Its EC50 is < 1 µM.

Which EC50 does the source give for `CCCC(CCC)Oc1ccc(Nc2nc(-c3cccnc3)cs2)cc1C(F)(F)F` [compound 680, N-(3-(trifluoromethyl)-4-(heptan-4-yloxy)phenyl)-4-(pyridin-3-yl)thiazol-2-amine] here?
Its EC50 is < 1 µM.

How did the EC50 turn out when `CCCCCCCCOc1ccc(Nc2nc(-c3ccc(CCO)cc3)cs2)cc1C(F)(F)F` [compound 666, 2-(4-(2-(3-(trifluoromethyl)-4-(octyloxy)phenylamino)thiazol-4-yl)phenyl)ethanol] was run?
Its EC50 is < 1 µM.

How did the EC50 turn out when `CCCCCOc1ccc(Nc2nc(-c3ccc(C#N)nc3)cs2)cc1F` [compound 615, 5-(2-(3-fluoro-4-(pentyloxy)phenylamino)thiazol-4-yl)pyridine-2-carbonitrile] was run?
The EC50 was < 1 µM.

`CCCCCCCCN(C)c1ccc(Nc2nc(Cc3ccc(F)cc3)cs2)cc1` [compound 632, N^1-(4-(4-fluorobenzyl)thiazol-2-yl)-N^4-methyl-N^4-octylbenzene-1,4-diamine] was tested. Which EC50 did it give?
Its EC50 is > 10 µM.

`CCCCCCCCOc1ccc(Nc2nc(Cc3ccc(Cl)cc3)cs2)cc1C(F)(F)F` [compound 635, 4-(4-chlorobenzyl)-N-(3-(trifluoromethyl)-4-(octyloxy)phenyl)thiazol-2-amine] was tested. Which EC50 did it give?
The EC50 was 1 to 10 µM.

`CCCCCCCCc1ccc(Nc2nc(-c3ccc(Cl)s3)cs2)cc1` [compound 546, 4-(5-chlorothiophen-2-yl)-N-(4-octylphenyl)thiazol-2-amine] was tested. Which EC50 did it give?
The EC50 was < 1 µM.

With `CCCCCCCCOc1ccc(Nc2nc(-c3ncccn3)cs2)cc1C(F)(F)F` [compound 681, N-(3-(trifluoromethyl)-4-(octyloxy)phenyl)-4-(pyrimidin-2-yl)thiazol-2-amine] as the molecule, how does the EC50 read?
Its EC50 is < 1 µM.

How did the EC50 turn out when `CCCCCCCCN(C)c1ccc(Nc2nc(-c3ccc(OCC(=O)O)cc3)c(C)s2)cc1C(F)(F)F` [compound 574, 2-(4-(2-(4-(N-methyl-N-octylamino)-3-(trifluoromethyl)phenylamino)-5-methylthiazol-4-yl)phenoxy)acetic acid] was run?
The EC50 was < 1 µM.

For `CCCCCCCCOc1ccc(Nc2nc(-c3cnc(OC)nc3OC)cs2)cc1C(F)(F)F` [compound 713, N-(3-(trifluoromethyl)-4-(octyloxy)phenyl)-4-(2,4-dimethoxypyrimidin-5-yl)thiazol-2-amine], which EC50 is on record?
Its EC50 is < 1 µM.

Same assay, conditions: Hepatitis C virus, replicon based assay of HCV replication inhibition; Table II; read-out: Activity

For `CN1CCC[C@H](c2csc(Nc3cccc(OCc4ccccc4)c3)n2)C1` [compound 237, (S)-N-(3-(benzyloxy)phenyl)-4-(1-methylpiperidin-3-yl)thiazol-2-amine], which EC50 is on record?
The EC50 was 1 to 10 µM.

With `Cc1sc(Nc2cccnc2)nc1-c1ccc(CC(=O)O)cc1` [compound 344, 2-(4-(5-methyl-2-(pyridin-3-ylamino)thiazol-4-yl)phenyl)acetic acid] as the molecule, how does the EC50 read?
The EC50 was > 10 µM.

How did the EC50 turn out when `CCCCCCCCc1ccc(Nc2nc(-c3ccc(F)nc3)cs2)cc1` [compound 490, 4-(6-fluoropyridin-3-yl)-N-(4-octylphenyl)thiazol-2-amine] was run?
The EC50 was < 1 µM.

For `CCCCCCCOc1ccc(Nc2nc(-c3cc(OC)ccc3OC)cs2)cc1` [compound 432, N-(4-(heptyloxy)phenyl)-4-(2,5-dimethoxyphenyl)thiazol-2-amine], which EC50 is on record?
The EC50 was < 1 µM.

`CCCCCCCCOc1ccc(Nc2nc3c(s2)Cc2ccccc2-3)cc1` [compound 485, N-(4-(octyloxy)phenyl)-8H-indeno[1,2-d]thiazol-2-amine] was tested. Which EC50 did it give?
Its EC50 is < 1 µM.

Which EC50 does the source give for `CCCCCCCCOc1ccc(Nc2nc(-c3ccc(O)cc3)cs2)cc1` [compound 458, 4-(2-(4-(octyloxy)phenylamino)thia-zol-4-yl)phenol] here?
The EC50 was < 1 µM.

With `COc1ccc(CNc2nc(-c3ccc(CC(=O)O)cc3)c(C)s2)cc1` [compound 346, 2-(4-(2-(4-methoxybenzylamino)-5-methylthiazol-4-yl)phenyl)acetic acid] as the molecule, how does the EC50 read?
The EC50 was > 10 µM.

With `CCCCCCCCOc1ccc(Nc2nc(-c3ccccc3OC)cs2)cc1` [compound 376, 4-(2-methoxyphenyl)-N-(4-(octyloxy)phenyl)thiazol-2-amine] as the molecule, how does the EC50 read?
The EC50 was < 1 µM.

How did the EC50 turn out when `Fc1ccc(-c2csc(Nc3ccc(OCC4CCCCC4)c(F)c3)n2)cc1` [compound 509, N-(4-(cyclohexylmethoxy)-3-fluorophenyl)-4-(4-fluorophenyl)thiazol-2-amine] was run?
The EC50 was < 1 µM.

For `CCCCCCCCOc1ccc(Nc2nc(Cc3ccccc3)cs2)cc1` [compound 513, 4-benyl-N-(4-(octyloxy)phenyl)thiazol-2-amine], which EC50 is on record?
Its EC50 is > 10 µM.

For `CCCCCCCCOc1ccc(Nc2nc(CN3C[C@H](O)CC3C(=O)OC)cs2)cc1` (stereo partly drawn) [compound 320, (4R)-methyl 4-hydroxy-1-((2-(4-(octyloxy)pheenylamino)thia-zol-4-yl)methyl)pyrrolidine-2-carboxylate], which EC50 is on record?
The EC50 was < 1 µM.

How did the EC50 turn out when `CCCCCCCOc1ccc(Nc2nc(-c3ccccc3)c(-c3ccccc3)s2)cc1` [compound 352, N-(4-(heptyloxy)phenyl)-4,5-diphenylthiazol-2-amine] was run?
The EC50 was > 10 µM.

Which EC50 does the source give for `CCCCCCCOc1ccc(Nc2nc(-c3ccc(Br)cc3)cs2)cc1` [compound 394, 4-(4-bromophenyl)-N-(4-(heptyloxy)phenyl)thiazol-2-amine] here?
Its EC50 is < 1 µM.

With `CCCCCCCc1ccc(C(=O)Nc2nc(-c3ccc(Cl)cc3)cs2)cc1` [compound 451, N-(4-(4-chlorophenyl)thiazol-2-yl)-4-heptylbenzamide] as the molecule, how does the EC50 read?
Its EC50 is < 1 µM.

With `Fc1ccc(-c2csc(Nc3ccc(OCCCC4CCCC4)c(C(F)(F)F)c3)n2)cc1` [compound 494, N-(4-(3-cyclopentylpropoxy)-3-(trifluoromethyl)phenyl)-4-(4-fluorophenyl)thiazol-2-amine] as the molecule, how does the EC50 read?
The EC50 was < 1 µM.

`CCCCCOc1ccc(Nc2nc(C3=NN=C(N)SC3)cs2)cc1C(F)(F)F` [compound 229, 5-(2-(4-(pentyloxy)-3-(trifluoromethyl)phenyl-amino)thiazol-4-yl)-6H-1,3,4-thiazdiazin-2-amine] was tested. Which EC50 did it give?
The EC50 was < 1 µM.

For `N#Cc1ccc(-c2csc(Nc3ccc(OCC4CCCCC4)c(F)c3)n2)cn1` [compound 511, 5-(2-(4-(cyclohexylmethoxy)-3-fluorophenylamino)thiazol-4-yl)pyridine-2-carbonitrile], which EC50 is on record?
The EC50 was > 10 µM.

`CCCCCOc1ccc(Nc2nc(CN3CCN(C4CCCCCC4)CC3)cs2)cc1F` [compound 282, 4-((4-cycloheptylpiperazin-1-yl)methyl)-N-(3-fluoro-4-(pentyloxy)phenyl)thiazol-2-amine] was tested. Which EC50 did it give?
The EC50 was < 1 µM.

How did the EC50 turn out when `CCCCCCCc1ccc(Nc2nc(Cc3cccnc3)cs2)cc1` [compound 504, N-(4-heptylphenyl)-4-((pyridin-3-yl)methyl)thiazol-2-amine] was run?
The EC50 was 1 to 10 µM.

Same assay, conditions: Hepatitis C virus, replicon based assay of HCV replication inhibition; Table IV; read-out: Activity

How did the EC50 turn out when `CC(C)(C)c1cccc(Nc2nc(-c3cccnc3)cs2)c1` [compound 893, N-(3-tert-butylphenyl)-4-(pyridin-3-yl)thiazol-2-amine] was run?
Its EC50 is > 10 µM.

How did the EC50 turn out when `CCCCCCCCOc1ccc(Nc2nc(-c3cnc[nH]3)cs2)cc1C(F)(F)F` [compound 811, N-(3-(trifluoromethyl)-4-(octyloxy)phenyl)-4-(1H-imidazol-5-yl)thiazol-2-amine] was run?
Its EC50 is < 1 µM.

`CCOC(=O)Cc1ccc(-c2csc(Nc3ccc(OCCN(CC)c4ccccc4)c(C(F)(F)F)c3)n2)s1` [compound 932] was tested. Which EC50 did it give?
The EC50 was 1 to 10 µM.

How did the EC50 turn out when `CC(C)(C)c1csc(Nc2nc(-c3cccnc3)cs2)n1` [compound 797, 4-tert-butyl-N-(4-(pyridin-3-yl)thiazol-2-yl)thiazol-2-amine] was run?
Its EC50 is > 10 µM.

`N#Cc1ccc(-c2csc(Nc3ccc(OCC4CCCCC4)c(C(F)(F)F)c3)n2)o1` [compound 764, 5-(2-(4-(cyclohexylmethoxy)-3-(trifluoromethyl)phenylamino)thiazol-4-yl)furan-2-carbonitrile] was tested. Which EC50 did it give?
Its EC50 is < 1 µM.

For `CCCCCCCCOc1ccc(Nc2nc(-c3ccc(CC(=O)O)s3)cs2)cc1C(F)(F)F` [compound 849, 2-(5-(2-(3-(trifluoromethyl)-4-(octyloxy)phenylamino)thiazol-4-yl)thiophen-2-yl)acetic acid], which EC50 is on record?
Its EC50 is < 1 µM.

`Cc1cc(Nc2nc(-c3cccnc3)cs2)ccc1OCCCCc1ccccc1` [compound 936, N-(4-(4-phenylbutoxy)-3-methylphenyl)-4-(pyridin-3-yl)thiazol-2-amine] was tested. Which EC50 did it give?
The EC50 was < 1 µM.
